Assay results as given in patent publication US4971993A, “Dipeptide derivatives and antihypertensive drugs containing them” (Ajinomoto Co., Inc., priority 1985, dated 1990).
Peptide text beside a SMILES is read from it. * marks the point of attachment. Mts = Cc1cc(C)c(S(=O)(=O)*)c(C)c1; Tos = Cc1ccc(S(=O)(=O)*)cc1

System: spontaneously hypertensive rats
Assay: Antihypertensive activity: systolic blood pressure measured indirectly on conscious SHR after a single oral dose
Format: in vivo
Settings: male; for Hours after Administration (time of lowest systolic blood pressure) / Systolic Blood Pressure, Lowest value after Administration: 0.05 mmole/kg aqueous solution, once force-fed into the stomach; for ΔBlood Pressure (systolic): 0.05 mmole/kg once orally, lowest value minus value before administration
Protocol: The antihypertensive activity of the peptide derivatives as prepared above was determined.
As subject animals there were used 5 SHR which had been trained enough and been confirmed to be hypertensive spontaneously hypertensive rats (male, body weight of 400-440 g),per sample
As an instrument for measuring the blood pressure there was used Programmed Electro-Sphygmomanometer PE-300 (Narco Co., U.S.A.), and the blood pressure was indirectly measured on conscious rats.
An aqueous solution of a sample (0.05 mmole/kg) was once force-fed into the stomach by means of a peroal probe. As a control, deionized water was fed to the same animals as above.

Compound	Hours after Administration (time of lowest systolic blood pressure) [h]	Systolic Blood Pressure, Lowest value after Administration [mmHg]	ΔBlood Pressure (systolic) [mmHg]
NCCCC[C@H](NS(=O)(=O)c1ccccc1)C(=O)N1CCC[C@H]1C(=O)O [Example 19, N^α -benzenesulfonyl-L-lysyl-L-proline]	7	191	-28
O=C(O)CC[C@H](NS(=O)(=O)c1ccccc1)C(=O)N1CCC[C@H]1C(=O)O [Example 18, N-benzenesulfonyl-L-glutamyl-L-proline]	7	189	-14
N-ethanesulfonyl-L-alanyl-L-proline potassium salt [Example 9]	7	213	-5
C[C@H](NS(=O)(=O)c1ccccc1N)C(=O)N1CCC[C@H]1C(=O)O [Example 6, N-o-aminobenzenesulfonyl-L-alanyl-L-proline]	7	197	-35
CC(C)[C@H](NS(=O)(=O)c1ccccc1)C(=O)N1CCC[C@H]1C(=O)O [Example 11, N-benzenesulfonyl-L-valyl-L-proline]	7	203	-11
CSCC[C@H](NS(=O)(=O)c1ccccc1)C(=O)N1CCC[C@H]1C(=O)O [Example 15, N-benzenesulfonyl-L-methionyl-L-proline]	4	206	-13
O=C(O)[C@@H]1CCCN1C(=O)CNS(=O)(=O)c1ccccc1 [Example 10, N-benzenesulfonylglycyl-L-proline]	7	201	-9
C[C@H](NS(=O)(=O)c1ccccc1)C(=O)N1CCC[C@H]1C(=O)O [Example 1, N-benzenesulfonyl-L-alanyl-L-proline]	8	185	-28
C[C@H](NS(=O)(=O)c1ccccc1C(=O)O)C(=O)N1CCC[C@H]1C(=O)O [Example 8, N-o-carboxybenzenesulfonyl-L-alanyl-L-proline]	7	194	-9
O=C(O)[C@@H]1CCCN1C(=O)[C@H](Cc1ccccc1)NS(=O)(=O)c1ccccc1 [Example 14, N-benzenesulfonyl-L-phenylalanyl-L-proline]	7	201	-18
C[C@H](NS(=O)(=O)Cc1ccccc1)C(=O)N1CCC[C@H]1C(=O)O [Example 7, N-benzylsulfonyl-L-alanyl-L-proline]	7	194	-21
C[C@H](NS(=O)(=O)c1cccc2ccccc12)C(=O)N1CCC[C@H]1C(=O)O [Example 4, N-α-naphthalenesulfonyl-L-alanyl-L-proline]	7	185	-13
2-benzenesulfonylamino isobutyryl-L-proline sodium salt [Example 21]	7	193	-17
O=C(O)[C@@H]1CCCN1C(=O)[C@@H](NS(=O)(=O)c1ccccc1)c1ccccc1 [Example 13, N-benzenesulfonyl-L-phenylglycyl-L-proline]	7	204	-8
C[C@H](NS(=O)(=O)c1ccccc1[N+](=O)[O-])C(=O)N1CCC[C@H]1C(=O)O [Example 5, N-α-nitrobenzenesulfonyl-L-alanyl-L-proline]	7	193	-18
O=C(O)[C@@H]1CCCN1C(=O)[C@H](CO)NS(=O)(=O)c1ccccc1 [Example 17, N-benzenesulfonyl-L-seryl-L-proline]	7	194	-22
Cc1ccc(S(=O)(=O)N[C@@H](C)C(=O)N2CCC[C@H]2C(=O)O)cc1 [Example 3, N-p-toluenesulfonyl-L-alanyl-L-proline] (Tos-Ala-Pro-OH)	7	194	-12
CC[C@H](C)[C@H](NS(=O)(=O)c1ccccc1)C(=O)N1CCC[C@H]1C(=O)O [Example 12, N-benzenesulfonyl-L-isoleucyl-L-proline]	7	191	-21
Cc1cc(C)c(S(=O)(=O)N[C@@H](C)C(=O)N2CCC[C@H]2C(=O)O)c(C)c1 [Example 2, N-mesitylenesulfonyl-L-alanyl-L-proline] (Mts-Ala-Pro-OH)	7	191	-11
O=C(O)[C@@H]1CCCN1C(=O)[C@@H]1CCCN1S(=O)(=O)c1ccccc1 [Example 16, N-benzenesulfonyl-L-prolyl-L-proline]	7	195	-21
